Tests used:
Experiment in all cases: relative viability (nuclei count vs DMSO), 5 days (fraction); higher = more cells survive
NCI-H727 = tested on: NCI-H727
Procedure, shortened: (§1)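 The day after seeding in 1536-well plates, lung cancer cell lines were treated by pin tool with a single drug, or with a fixed anchor-drug dose together with five library-drug doses (not always all listed) in √10 steps. After 5 days, a combined fix-and-stain solution (final 0.05% Triton X-100, 1% formaldehyde, 1 ug/ml Hoechst) was added. Nuclei counted on 4× images gave relative viability as treated counts over vehicle counts, reported as the median of duplicate plates.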

NCI-H838 = tested on: NCI-H838
Procedure, shortened: as §1

LK-2 = tested on: LK-2
Procedure, shortened: as §1

NCI-H1355 = tested on: NCI-H1355
Procedure, shortened: as §1

SW 1573 = tested on: SW 1573
Procedure, shortened: as §1

UMC-11 = tested on: UMC-11
Procedure, shortened: as §1

NCI-H1734 = tested on: NCI-H1734
Procedure, shortened: as §1

NCI-H2228 = tested on: NCI-H2228
Procedure, shortened: as §1

NCI-H520 = tested on: NCI-H520
Procedure, shortened: as §1

NCI-H2347 = tested on: NCI-H2347
Procedure, shortened: as §1

201T = tested on: 201T
Procedure, shortened: as §1

NCI-H2009 = tested on: NCI-H2009
Procedure, shortened: as §1

LOU-NH91 = tested on: LOU-NH91
Procedure, shortened: as §1

HCC-44 = tested on: HCC-44
Procedure, shortened: as §1

NCI-H1650 = tested on: NCI-H1650
Procedure, shortened: as §1

NCI-H1755 = tested on: NCI-H1755
Procedure, shortened: as §1

NCI-H358 = tested on: NCI-H358
Procedure, shortened: as §1

HCC-366 = tested on: HCC-366
Procedure, shortened: as §1

HCC-78 = tested on: HCC-78
Procedure, shortened: as §1

ABC-1 = tested on: ABC-1
Procedure, shortened: as §1

NCI-H2405 = tested on: NCI-H2405
Procedure, shortened: as §1

BEN = tested on: BEN
Procedure, shortened: as §1

NCI-H1666 = tested on: NCI-H1666
Procedure, shortened: as §1

How did the relative viability (NCI-H727; first compound 0.08 µM) turn out when `Cc1cnc(-c2cnc(NCCNc3ccc(C#N)cn3)nc2-c2ccc(Cl)cc2Cl)[nH]1` + O=C(CCCCCCC(=O)Nc1ccccc1)NO [Vorinostat] (partner 1 µM) was run?
Its relative viability is 1.18.

And the relative viability (NCI-H727; first compound 0.253 µM)?
The relative viability was 0.787.

And the relative viability (NCI-H727; first compound 0.8 µM)?
The relative viability was 1.02.

And the relative viability (NCI-H727; first compound 2.53 µM)?
The relative viability was 1.23.

And the relative viability (NCI-H838; first compound 0.08 µM)?
Its relative viability is 0.726.

And the relative viability (NCI-H838; first compound 0.253 µM)?
Its relative viability is 0.723.

And the relative viability (NCI-H838; first compound 0.8 µM)?
The relative viability was 0.856.

What about the relative viability (NCI-H838; first compound 2.53 µM) of the same compound?
Its relative viability is 1.06.

And the relative viability (LK-2; first compound 0.08 µM)?
Its relative viability is 0.274.

And the relative viability (LK-2; first compound 0.253 µM)?
Its relative viability is 0.331.

And the relative viability (LK-2; first compound 0.8 µM)?
The relative viability was 0.286.

And the relative viability (LK-2; first compound 2.53 µM)?
Its relative viability is 0.318.

What about the relative viability (NCI-H1355; first compound 0.08 µM) of the same compound?
Its relative viability is 0.632.

What about the relative viability (NCI-H1355; first compound 0.253 µM) of the same compound?
The relative viability was 0.544.

What about the relative viability (NCI-H1355; first compound 0.8 µM) of the same compound?
Its relative viability is 0.633.

And the relative viability (NCI-H1355; first compound 2.53 µM)?
The relative viability was 0.651.

What about the relative viability (SW 1573; first compound 0.08 µM) of the same compound?
The relative viability was 0.849.

What about the relative viability (SW 1573; first compound 0.253 µM) of the same compound?
The relative viability was 0.815.

And the relative viability (SW 1573; first compound 0.8 µM)?
The relative viability was 0.463.

What about the relative viability (SW 1573; first compound 2.53 µM) of the same compound?
The relative viability was 0.224.

What about the relative viability (UMC-11; first compound 0.08 µM) of the same compound?
The relative viability was 0.403.

And the relative viability (UMC-11; first compound 0.253 µM)?
Its relative viability is 0.387.

What about the relative viability (UMC-11; first compound 0.8 µM) of the same compound?
Its relative viability is 0.411.

What about the relative viability (UMC-11; first compound 2.53 µM) of the same compound?
The relative viability was 0.511.

What about the relative viability (NCI-H1734; first compound 0.08 µM) of the same compound?
The relative viability was 0.88.

What about the relative viability (NCI-H1734; first compound 0.253 µM) of the same compound?
The relative viability was 0.693.

And the relative viability (NCI-H1734; first compound 0.8 µM)?
Its relative viability is 0.745.

What about the relative viability (NCI-H1734; first compound 2.53 µM) of the same compound?
Its relative viability is 0.661.

What about the relative viability (NCI-H2228; first compound 0.08 µM) of the same compound?
Its relative viability is 0.891.

And the relative viability (NCI-H2228; first compound 0.253 µM)?
The relative viability was 0.642.

And the relative viability (NCI-H2228; first compound 0.8 µM)?
Its relative viability is 0.668.

And the relative viability (NCI-H2228; first compound 2.53 µM)?
Its relative viability is 0.693.

What about the relative viability (NCI-H520; first compound 0.08 µM) of the same compound?
The relative viability was 0.814.

And the relative viability (NCI-H520; first compound 0.253 µM)?
Its relative viability is 0.678.

And the relative viability (NCI-H520; first compound 0.8 µM)?
Its relative viability is 0.725.

What about the relative viability (NCI-H520; first compound 2.53 µM) of the same compound?
The relative viability was 0.772.

And the relative viability (NCI-H2347; first compound 0.08 µM)?
The relative viability was 0.56.

And the relative viability (NCI-H2347; first compound 0.253 µM)?
The relative viability was 0.568.

What about the relative viability (NCI-H2347; first compound 0.8 µM) of the same compound?
The relative viability was 0.604.

And the relative viability (NCI-H2347; first compound 2.53 µM)?
The relative viability was 0.597.

And the relative viability (201T; first compound 0.08 µM)?
The relative viability was 1.01.

And the relative viability (201T; first compound 0.8 µM)?
The relative viability was 0.977.

And the relative viability (201T; first compound 2.53 µM)?
The relative viability was 0.912.

And the relative viability (NCI-H2009; first compound 0.08 µM)?
The relative viability was 0.738.

What about the relative viability (NCI-H2009; first compound 0.253 µM) of the same compound?
Its relative viability is 0.676.

What about the relative viability (NCI-H2009; first compound 0.8 µM) of the same compound?
Its relative viability is 0.659.

What about the relative viability (NCI-H2009; first compound 2.53 µM) of the same compound?
Its relative viability is 0.725.

What about the relative viability (LOU-NH91; first compound 0.08 µM) of the same compound?
Its relative viability is 0.972.

What about the relative viability (LOU-NH91; first compound 0.253 µM) of the same compound?
Its relative viability is 0.878.

What about the relative viability (LOU-NH91; first compound 0.8 µM) of the same compound?
Its relative viability is 0.942.

What about the relative viability (LOU-NH91; first compound 2.53 µM) of the same compound?
The relative viability was 0.978.

What about the relative viability (HCC-44; first compound 0.08 µM) of the same compound?
Its relative viability is 1.05.

And the relative viability (HCC-44; first compound 0.253 µM)?
Its relative viability is 1.16.

What about the relative viability (HCC-44; first compound 0.8 µM) of the same compound?
The relative viability was 1.03.

And the relative viability (HCC-44; first compound 2.53 µM)?
The relative viability was 1.24.

And the relative viability (NCI-H1650; first compound 0.08 µM)?
Its relative viability is 0.564.

What about the relative viability (NCI-H1650; first compound 0.253 µM) of the same compound?
The relative viability was 0.508.

What about the relative viability (NCI-H1650; first compound 0.8 µM) of the same compound?
The relative viability was 0.546.

What about the relative viability (NCI-H1650; first compound 2.53 µM) of the same compound?
The relative viability was 0.661.

And the relative viability (NCI-H1755; first compound 0.08 µM)?
Its relative viability is 0.826.

And the relative viability (NCI-H1755; first compound 0.253 µM)?
Its relative viability is 0.684.

What about the relative viability (NCI-H1755; first compound 0.8 µM) of the same compound?
The relative viability was 0.745.

What about the relative viability (NCI-H1755; first compound 2.53 µM) of the same compound?
The relative viability was 0.823.

What about the relative viability (NCI-H358; first compound 0.08 µM) of the same compound?
The relative viability was 0.787.

What about the relative viability (NCI-H358; first compound 0.253 µM) of the same compound?
The relative viability was 0.686.

What about the relative viability (NCI-H358; first compound 0.8 µM) of the same compound?
Its relative viability is 0.69.

What about the relative viability (NCI-H358; first compound 2.53 µM) of the same compound?
Its relative viability is 0.585.

What about the relative viability (HCC-366; first compound 0.08 µM) of the same compound?
The relative viability was 0.332.

What about the relative viability (HCC-366; first compound 0.253 µM) of the same compound?
The relative viability was 0.24.

What about the relative viability (HCC-366; first compound 0.8 µM) of the same compound?
The relative viability was 0.31.

What about the relative viability (HCC-366; first compound 2.53 µM) of the same compound?
Its relative viability is 0.369.

What about the relative viability (HCC-78; first compound 0.08 µM) of the same compound?
Its relative viability is 0.553.

What about the relative viability (HCC-78; first compound 0.253 µM) of the same compound?
The relative viability was 0.438.

What about the relative viability (HCC-78; first compound 0.8 µM) of the same compound?
The relative viability was 0.39.

And the relative viability (HCC-78; first compound 2.53 µM)?
Its relative viability is 0.427.

And the relative viability (ABC-1; first compound 0.08 µM)?
The relative viability was 1.24.

And the relative viability (ABC-1; first compound 0.253 µM)?
Its relative viability is 0.871.

And the relative viability (ABC-1; first compound 0.8 µM)?
Its relative viability is 1.06.

And the relative viability (ABC-1; first compound 2.53 µM)?
The relative viability was 1.15.

What about the relative viability (NCI-H2405; first compound 0.08 µM) of the same compound?
Its relative viability is 1.02.

What about the relative viability (NCI-H2405; first compound 0.253 µM) of the same compound?
Its relative viability is 0.985.

And the relative viability (NCI-H2405; first compound 0.8 µM)?
Its relative viability is 0.909.

And the relative viability (NCI-H2405; first compound 2.53 µM)?
The relative viability was 0.661.

And the relative viability (BEN; first compound 0.08 µM)?
Its relative viability is 0.575.

And the relative viability (BEN; first compound 0.253 µM)?
Its relative viability is 0.559.

And the relative viability (BEN; first compound 0.8 µM)?
Its relative viability is 0.595.

What about the relative viability (BEN; first compound 2.53 µM) of the same compound?
Its relative viability is 0.559.

What about the relative viability (NCI-H1666; first compound 0.08 µM) of the same compound?
The relative viability was 0.899.

And the relative viability (NCI-H1666; first compound 0.253 µM)?
Its relative viability is 1.05.

And the relative viability (NCI-H1666; first compound 0.8 µM)?
Its relative viability is 0.964.

What about the relative viability (NCI-H1666; first compound 2.53 µM) of the same compound?
Its relative viability is 1.1.
